Several values for one entry are separate records, joined by “and”; a condition that tells them apart may be missing. Equal values may be shown once. Inconclusive results and toxic doses are left out. The calls were made as follows: active = survival T/C of 150% or more; inactive = T/C below 125% in these data.
Test system: P388 leukemia ip, CD2F1 mice, survival T/C
Assay: NCI In Vivo Anticancer Drug Screen. Data for tumor model P388 Leukemia (intraperitoneal) in CD2F1 (CDF1) mice
Conditions: endpoint: median survival time, higher = longer survival
Procedure, shortened: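 Mice carrying the transplanted tumor received test compound or vehicle. Survival was recorded in each group, and the value is the treated-group measurement divided by that of the vehicle-treated control group.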

[1] = dose: 50.0 mg/kg/injection, schedule: Q01DX005 (ip), vehicle: saline
[2] = dose: 100.0 mg/kg/injection, schedule: Q04DX003 (ip), vehicle: Klucel (hydroxypropylcellulose) (HPC)
[3] = dose: 200.0 mg/kg/injection, schedule: Q04DX003 (ip), vehicle: Klucel (hydroxypropylcellulose) (HPC)
[4] = dose: 400.0 mg/kg/injection, schedule: Q04DX003 (ip), vehicle: Klucel (hydroxypropylcellulose) (HPC)

Measured: T/C

CNC(=O)ON(C(C)=O)C(=O)NC
inactive: dose: 3.13 mg/kg/injection, schedule: Q03HX015 (ip), vehicle: water 101 % of control and 118 % of control | dose: 6.25 mg/kg/injection, schedule: Q01DX001 (iv), vehicle: saline 95 % of control | dose: 6.25 mg/kg/injection, schedule: Q01DX005 (iv), vehicle: saline 100 % of control | dose: 6.25 mg/kg/injection, schedule: Q01DX009 (ip), vehicle: saline 118 % of control | dose: 6.25 mg/kg/injection, schedule: Q03HX015 (ip), vehicle: water 121 % of control and 98 % of control | dose: 10.0 mg/kg/injection, schedule: Q01DX009 (ip), vehicle: saline 114 % of control and 119 % of control and 120 % of control | dose: 12.5 mg/kg/injection, schedule: Q01DX001 (iv), vehicle: saline 98 % of control | dose: 12.5 mg/kg/injection, schedule: Q01DX005 (ip), vehicle: saline 116 % of control | dose: 12.5 mg/kg/injection, schedule: Q01DX005 (iv), vehicle: saline 102 % of control | dose: 12.5 mg/kg/injection, schedule: Q01DX005 (oral), vehicle: saline 101 % of control | dose: 12.5 mg/kg/injection, schedule: Q01DX009 (ip), vehicle: water 103 % of control and 120 % of control | dose: 12.5 mg/kg/injection, schedule: Q01DX009 (oral), vehicle: saline 103 % of control | dose: 12.5 mg/kg/injection, schedule: Q03HX015 (ip), vehicle: saline 115 % of control | dose: 12.5 mg/kg/injection, schedule: Q03HX015 (ip), vehicle: water 99 % of control and 116 % of control | dose: 20.0 mg/kg/injection, schedule: Q01DX009 (ip), vehicle: saline 121 % of control | dose: 25.0 mg/kg/injection, schedule: Q01DX001 (ip), vehicle: saline 106 % of control | dose: 25.0 mg/kg/injection, schedule: Q01DX001 (iv), vehicle: saline 100 % of control | dose: 25.0 mg/kg/injection, schedule: Q01DX001 (oral), vehicle: saline 98 % of control | dose: 25.0 mg/kg/injection, schedule: Q01DX005 (ip), vehicle: saline 116 % of control | dose: 25.0 mg/kg/injection, schedule: Q01DX005 (iv), vehicle: saline 104 % of control | dose: 25.0 mg/kg/injection, schedule: Q01DX005 (oral), vehicle: saline 104 % of control | dose: 25.0 mg/kg/injection, schedule: Q01DX009 (ip), vehicle: water 106 % of control | dose: 25.0 mg/kg/injection, schedule: Q01DX009 (oral), vehicle: saline 120 % of control | dose: 25.0 mg/kg/injection, schedule: Q03HX015 (ip), vehicle: water 107 % of control | dose: 40.0 mg/kg/injection, schedule: Q01DX009 (ip), vehicle: saline 124 % of control | dose: 50.0 mg/kg/injection, schedule: Q01DX001 (ip), vehicle: saline 111 % of control | dose: 50.0 mg/kg/injection, schedule: Q01DX001 (iv), vehicle: saline 101 % of control and 102 % of control | dose: 50.0 mg/kg/injection, schedule: Q01DX001 (oral), vehicle: saline 97 % of control | [1] 114 % of control | dose: 50.0 mg/kg/injection, schedule: Q01DX005 (iv), vehicle: saline 106 % of control and 108 % of control | dose: 50.0 mg/kg/injection, schedule: Q01DX005 (oral), vehicle: saline 110 % of control | dose: 50.0 mg/kg/injection, schedule: Q01DX009 (ip), vehicle: water 107 % of control | dose: 50.0 mg/kg/injection, schedule: Q01DX009 (oral), vehicle: saline 115 % of control | dose: 50.0 mg/kg/injection, schedule: Q03HX015 (ip), vehicle: water 112 % of control | dose: 80.0 mg/kg/injection, schedule: Q01DX009 (ip), vehicle: saline 121 % of control | dose: 100.0 mg/kg/injection, schedule: Q01DX001 (ip), vehicle: saline 105 % of control | dose: 100.0 mg/kg/injection, schedule: Q01DX001 (iv), vehicle: saline 99 % of control and 101 % of control | dose: 100.0 mg/kg/injection, schedule: Q01DX001 (oral), vehicle: saline 103 % of control | dose: 100.0 mg/kg/injection, schedule: Q01DX005 (iv), vehicle: saline 114 % of control and 115 % of control | dose: 100.0 mg/kg/injection, schedule: Q01DX005 (oral), vehicle: saline 120 % of control | dose: 100.0 mg/kg/injection, schedule: Q01DX009 (ip), vehicle: water 121 % of control | dose: 200.0 mg/kg/injection, schedule: Q01DX001 (iv), vehicle: saline 107 % of control | dose: 200.0 mg/kg/injection, schedule: Q01DX001 (oral), vehicle: saline 103 % of control | dose: 200.0 mg/kg/injection, schedule: Q01DX005 (oral), vehicle: saline 116 % of control | dose: 200.0 mg/kg/injection, schedule: Q01DX009 (ip), vehicle: water 123 % of control | dose: 400.0 mg/kg/injection, schedule: Q01DX001 (oral), vehicle: saline 116 % of control

CCN(CC)CCNc1ccc(COC(=O)NC)c2sc3ccccc3c(=O)c12
inactive: dose: 1.56 mg/kg/injection, schedule: Q01DX009 (ip), vehicle: saline with Tween-80 116 % of control | dose: 3.12 mg/kg/injection, schedule: Q01DX009 (ip), vehicle: saline with Tween-80 122 % of control | dose: 6.25 mg/kg/injection, schedule: Q01DX009 (ip), vehicle: saline with Tween-80 119 % of control

Cc1cc2ccccc2c2c(C)c3cccc[n+]3cc12
inactive: dose: 6.25 mg/kg/injection, schedule: Q04DX003 (ip), vehicle: other 114 % of control | dose: 12.5 mg/kg/injection, schedule: Q04DX003 (ip), vehicle: other 110 % of control | dose: 25.0 mg/kg/injection, schedule: Q04DX003 (ip), vehicle: other 110 % of control

[Cl-].[Cl-].[Co+3].[NH-]CC[NH-].[NH-]CC[NH-].[O-][Cl+3]([O-])([O-])O
inactive: dose: 25.0 mg/kg/injection, schedule: Q01DX009 (ip), vehicle: saline with Tween-80 102 % of control | dose: 50.0 mg/kg/injection, schedule: Q01DX009 (ip), vehicle: saline with Tween-80 105 % of control and 117 % of control | dose: 100.0 mg/kg/injection, schedule: Q01DX009 (ip), vehicle: saline with Tween-80 111 % of control and 123 % of control

O=C1C=C(N2CCN(CCO)CC2)C(=O)c2c(N3CCN(CCO)CC3)cc(N3CCN(CCO)CC3)nc21
inactive: [1] 97 % of control | dose: 100.0 mg/kg/injection, schedule: Q01DX005 (ip), vehicle: saline 93 % of control | dose: 200.0 mg/kg/injection, schedule: Q01DX005 (ip), vehicle: saline 93 % of control

Clc1cc2c(c3ncccc13)OCN(Cc1ccccc1)C2
inactive: [2] 91 % of control | [3] 92 % of control | [4] 92 % of control

C/C(CC(O)(c1ccccc1)c1ccccc1)=N/Sc1ccccc1
inactive: [2] 100 % of control | [3] 92 % of control | [4] 94 % of control

CC(=O)CC(=O)c1ccc(C)cc1.CC(=O)CC(=O)c1ccc(C)cc1.[Ni]
inactive: dose: 3.12 mg/kg/injection, schedule: Q01DX005 (ip), vehicle: saline with Tween-80 97 % of control | dose: 6.25 mg/kg/injection, schedule: Q01DX005 (ip), vehicle: saline with Tween-80 95 % of control | dose: 12.5 mg/kg/injection, schedule: Q01DX005 (ip), vehicle: saline with Tween-80 90 % of control | dose: 25.0 mg/kg/injection, schedule: Q04DX002 (ip), vehicle: saline with Tween-80 95 % of control | dose: 25.0 mg/kg/injection, schedule: Q04DX003 (ip), vehicle: saline with Tween-80 97 % of control | dose: 50.0 mg/kg/injection, schedule: Q01DX005 (ip), vehicle: saline with Tween-80 91 % of control | dose: 50.0 mg/kg/injection, schedule: Q04DX002 (ip), vehicle: saline with Tween-80 99 % of control | dose: 50.0 mg/kg/injection, schedule: Q04DX003 (ip), vehicle: saline with Tween-80 101 % of control | dose: 100.0 mg/kg/injection, schedule: Q04DX002 (ip), vehicle: saline with Tween-80 105 % of control | dose: 200.0 mg/kg/injection, schedule: Q04DX002 (ip), vehicle: saline with Tween-80 98 % of control
